# In patent publication US8084046B2 (priority 2001, dated 2011):
# Values joined by “and” are separate entries in the source; they are usually repeats but may differ in a detail not shown here. Equal values may be shown once. Read-outs that look alike come from different tables or passages of the source.
# Columns and labels:
# Assay type in all cases: cell-based
# S. aureus (MN8) [1] = conditions: 24 h
# S. aureus (MN8) [2] = system: S. aureus (MN8)
# S. aureus MN8 [3] = system: S. aureus MN8
# S. aureus MN8 [4] = system: S. aureus MN8; set-up: ngTSST-1 per CFU: scale not given here; conditions: for % Reduction / ngTSST-1 per CFU: terpineol 0%
compound,measurement,setting,value
CC(C)=CCC/C(C)=C/CO [Geraniol],ng TSST-1 per OD Unit,S. aureus (MN8) [1],26
C=CC(C)(O)CCC=C(C)C (stereo not shown) [Linalool],ng TSST-1 per OD Unit,S. aureus (MN8) [1],421
CC1CCC(C(C)C)C(O)C1 (stereo not shown) [Menthol],ng TSST-1 per OD Unit,S. aureus (MN8) [1],33
same,effect on the growth of S. aureus cells,S. aureus (MN8) [2],"minimal, if any, effect on the growth of S. aureus cells"
"CC1(O)CCC(C(C)(C)O)CC1 (stereo not shown) [p-menthane-1,8-diol]",ng TSST-1 per OD Unit,S. aureus (MN8) [1],792
myreth-3-myristate [Cetiol],% CFU/mL × 10^6,S. aureus MN8 [3],5.9 and 5.0 and 4.2
same,ng TSST-1 per mL,S. aureus MN8 [4],1147 and 989 and 1556
same,% Reduction,S. aureus MN8 [4]; Cetiol 2.5 mM,0%
same,ngTSST-1 per CFU,S. aureus MN8 [4]; Cetiol 2.5 mM,371 ng per CFU
same,% Reduction,S. aureus MN8 [4]; Cetiol 5.0 mM,39%
same,ngTSST-1 per CFU,S. aureus MN8 [4]; Cetiol 5.0 mM,196 ng per CFU
same,% Reduction,S. aureus MN8 [4]; Cetiol 10.0 mM,37%
same,ngTSST-1 per CFU,S. aureus MN8 [4]; Cetiol 10.0 mM,200 ng per CFU
